# What was measured:
# Assay in all cases: relative viability (nuclei count vs DMSO), 5 days (fraction); higher = more cells survive
# [1] = compound: CC1=CC=C(C=C1)C(=O)CN2C3=C(CCCC3)SC2=N [Pifithrin_alpha] + COc1cccc2cc(-c3nc([C@H]4CC[C@H](C(=O)O)CC4)n4ncnc(N)c34)[nH]c12 [OSI-027] (partner 0.5 µM)
# Outline: (§1)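 For relative viability, nuclei counts in treated wells were divided by those in vehicle wells. Lung cancer cell lines had been pin-tool dosed in 1536-well plates the day after seeding and cultured for 5 days, then fixed and stained in one step (final 0.05% Triton X-100, 1% formaldehyde, 1 ug/ml Hoechst) and imaged at 4×. Doses were one drug alone or a fixed anchor-drug dose plus five library-drug doses (not always all listed) in √10 steps, and values are duplicate-plate medians.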
# Axitinib + Bortezomib = compound: CNC(=O)c1ccccc1Sc1ccc2c(/C=C/c3ccccn3)n[nH]c2c1 [Axitinib] + CC(C)C[C@H](NC(=O)[C@H](Cc1ccccc1)NC(=O)c1cnccn1)B(O)O [Bortezomib] (partner 0.002 µM)
# Outline: as §1
# Bemcentinib + Bortezomib = compound: Nc1nc(Nc2ccc3c(c2)CC[C@@H](N2CCCC2)CC3)nn1-c1cc2c(nn1)-c1ccccc1CCC2 [Bemcentinib] + CC(C)C[C@H](NC(=O)[C@H](Cc1ccccc1)NC(=O)c1cnccn1)B(O)O [Bortezomib] (partner 0.002 µM)
# Outline: as §1
# [2] = compound: CC1=CC=C(C=C1)C(=O)CN2C3=C(CCCC3)SC2=N [Pifithrin_alpha] + N=C(N)NC(=N)NCCc1ccccc1 [Phenformin] (partner 250 µM)
# Outline: as §1
Cell Line,relative viability ([1]; first compound 1 µM),relative viability ([1]; first compound 3.162 µM),relative viability ([1]; first compound 10 µM),relative viability ([1]; first compound 31.62 µM),relative viability ([1]; first compound 100 µM),relative viability (Axitinib + Bortezomib; first compound 0.005 µM),relative viability (Axitinib + Bortezomib; first compound 0.01581 µM),relative viability (Axitinib + Bortezomib; first compound 0.05 µM),relative viability (Axitinib + Bortezomib; first compound 0.1581 µM),relative viability (Axitinib + Bortezomib; first compound 0.5 µM),relative viability (Bemcentinib + Bortezomib; first compound 0.04 µM),relative viability (Bemcentinib + Bortezomib; first compound 0.1265 µM),relative viability (Bemcentinib + Bortezomib; first compound 0.4 µM),relative viability (Bemcentinib + Bortezomib; first compound 1.265 µM),relative viability (Bemcentinib + Bortezomib; first compound 4 µM),relative viability ([2]; first compound 1 µM),relative viability ([2]; first compound 3.162 µM),relative viability ([2]; first compound 10 µM),relative viability ([2]; first compound 31.62 µM),relative viability ([2]; first compound 100 µM)
201T,0.453,0.542,0.524,0.439,0.467,1.14,1.08,1.06,1.07,1.11,0.864,1.15,1.12,0.978,1.1,0.401,0.385,0.383,0.441,0.457
A549,–,–,–,–,–,–,–,–,–,–,–,–,–,–,–,–,0.272,0.374,0.315,0.305
A-427,0.398,0.416,0.445,0.445,0.601,1.07,1.04,0.988,1.06,1.13,–,0.971,0.871,0.942,0.967,0.318,0.305,0.245,0.235,0.264
ABC-1,0.358,0.526,0.35,0.299,0.326,0.34,0.307,0.315,0.254,0.289,0.269,0.285,0.289,0.285,0.257,0.251,0.218,0.227,0.255,0.227
BEN,0.294,0.278,0.306,0.286,0.266,0.804,0.781,0.554,0.75,0.543,0.56,0.899,0.891,0.506,0.776,0.296,0.595,0.276,0.246,0.289
CAL-12T,0.455,0.592,0.457,–,0.444,1.03,0.978,0.955,1.11,0.965,0.977,0.936,0.953,0.736,0.908,0.604,0.558,0.533,–,0.457
COR-L23,0.843,0.822,0.616,–,0.613,1.05,1.04,0.943,0.959,1.2,1.16,1.14,1.17,1.27,1.24,0.465,0.46,0.426,–,0.509
COR-L 105,0.6,0.667,0.591,0.64,0.495,0.748,0.868,0.798,0.758,0.92,0.766,0.71,1.04,0.739,0.74,0.525,0.484,0.55,0.436,0.403
Calu-6,–,–,–,–,–,1.11,0.944,0.956,1.1,0.996,1.05,1.07,1.07,1.08,1.12,–,–,–,–,–
ChaGo-K-1,0.374,0.479,0.53,0.321,0.482,0.953,0.919,1.13,1.05,1.16,0.905,1.1,0.98,0.804,0.766,0.485,0.5,0.491,0.387,0.472
EBC-1,–,–,–,–,–,0.631,0.657,0.521,0.565,0.629,0.585,0.547,0.525,0.458,0.585,–,–,–,–,–
EKVX,0.668,–,0.569,0.734,0.604,1.13,1.08,0.98,1.03,0.997,1.02,1.36,1.03,0.996,0.995,0.207,–,0.201,0.213,0.199
EMC-BAC-2,0.329,0.386,0.358,–,0.353,1.13,1.04,1.09,1.13,1.07,1.07,1.15,1.07,0.952,1.11,0.504,0.511,0.478,–,0.556
EPLC-272H,0.227,0.307,0.245,0.244,0.256,0.986,0.804,0.857,0.994,0.892,–,1,0.91,0.79,0.876,0.266,0.305,0.364,0.246,0.222
H3255,0.552,0.608,0.504,0.521,0.572,0.672,0.778,0.856,0.962,0.6,0.648,0.863,0.767,0.803,0.715,0.364,0.97,0.384,0.389,0.342
HARA,–,0.482,0.58,–,0.441,1.09,1.07,1.1,1.13,1.14,1.19,1.17,1.27,1.15,1.1,–,0.441,0.409,–,0.407
HCC-15,0.503,0.61,0.611,0.376,0.485,1.08,0.995,1.01,0.988,1.06,0.931,1.19,1.12,1,1.07,0.487,0.449,0.435,0.249,0.279
HCC-44,0.39,0.391,0.481,0.324,0.268,0.925,0.859,0.855,0.89,1.01,0.974,0.92,0.992,0.89,0.917,0.17,0.164,0.171,0.133,0.178
HCC-78,0.349,0.388,0.34,0.326,0.349,0.643,0.491,0.305,0.499,0.566,0.485,0.516,0.556,0.541,0.491,0.433,0.727,0.664,0.645,0.69
HCC-366,0.787,0.605,0.538,–,0.48,0.977,0.994,1.11,1,1.13,0.985,1.16,1.35,1.1,1.06,0.662,0.658,0.618,–,0.533
HCC-827,0.807,0.912,0.823,0.713,0.774,1.11,1.06,1.04,1.02,1.15,0.979,1.05,1.16,0.762,1.06,0.438,0.432,0.414,0.409,0.395

Cell Line,relative viability ([1]; first compound 1 µM),relative viability ([1]; first compound 3.162 µM),relative viability ([1]; first compound 10 µM),relative viability ([1]; first compound 31.62 µM),relative viability ([1]; first compound 100 µM),relative viability (Axitinib + Bortezomib; first compound 0.005 µM),relative viability (Axitinib + Bortezomib; first compound 0.01581 µM),relative viability (Axitinib + Bortezomib; first compound 0.05 µM),relative viability (Axitinib + Bortezomib; first compound 0.1581 µM),relative viability (Axitinib + Bortezomib; first compound 0.5 µM),relative viability (Bemcentinib + Bortezomib; first compound 0.04 µM),relative viability (Bemcentinib + Bortezomib; first compound 0.1265 µM),relative viability (Bemcentinib + Bortezomib; first compound 0.4 µM),relative viability (Bemcentinib + Bortezomib; first compound 1.265 µM),relative viability (Bemcentinib + Bortezomib; first compound 4 µM),relative viability ([2]; first compound 1 µM),relative viability ([2]; first compound 3.162 µM),relative viability ([2]; first compound 10 µM),relative viability ([2]; first compound 31.62 µM),relative viability ([2]; first compound 100 µM)
HOP-62,0.836,0.811,0.955,0.635,0.921,1.02,0.776,0.668,0.891,1.21,0.753,0.822,–,0.779,0.736,0.601,0.903,0.749,0.59,0.81
IA-LM,–,–,–,–,–,1.17,0.775,0.899,0.846,0.728,0.663,0.696,0.799,0.923,0.808,–,–,–,–,–
LC-2-ad,–,0.84,0.797,–,0.675,1.1,1.06,0.93,1.04,1.16,1,1.01,1.11,0.968,0.982,–,0.601,0.646,–,0.588
LCLC-97TM1,0.706,0.689,0.631,0.252,0.6,0.732,0.419,0.585,0.515,0.736,0.571,0.794,0.703,0.602,0.473,0.46,0.479,0.459,0.435,0.475
LCLC-103H,0.521,0.504,0.437,0.411,0.531,1.07,1.07,1.18,1.03,1.07,1.06,1.03,1.09,1.1,1.01,0.336,0.313,0.373,0.355,0.375
LK-2,0.192,0.213,0.185,0.17,0.169,–,–,–,–,–,–,–,–,–,–,0.352,0.571,0.563,–,0.466
LOU-NH91,0.592,0.692,0.703,0.655,0.595,0.517,0.537,0.43,0.475,0.57,0.429,0.503,0.493,0.487,0.407,0.514,0.647,0.689,0.665,0.627
LU99A,0.266,0.27,0.273,0.23,0.281,1.1,1.09,1.13,1.12,1.12,1.11,1.12,1.01,1.25,1.2,0.817,0.809,0.904,0.406,0.763
NCI-H358,0.761,0.797,0.658,0.629,0.528,–,–,–,–,–,–,–,–,–,–,0.353,0.389,0.357,0.272,0.344
NCI-H522,0.439,0.624,0.668,0.761,0.777,–,–,–,–,–,–,–,–,–,–,0.736,0.63,0.65,0.673,0.693
NCI-H1299,–,–,–,–,–,1.05,0.989,1.07,0.976,1.06,0.981,1.03,1.03,1.04,1.09,–,–,–,–,–
NCI-H1395,0.541,0.629,0.617,0.432,0.643,–,–,–,–,–,–,–,–,–,–,0.428,0.433,0.411,0.416,0.41
NCI-H1623,0.401,0.5,0.38,0.331,0.324,–,–,–,–,–,–,–,–,–,–,0.556,0.619,0.556,0.465,0.561
NCI-H1648,0.226,0.277,0.234,0.235,0.252,–,–,–,–,–,–,–,–,–,–,–,–,–,–,–
NCI-H1703,–,–,–,–,–,0.353,0.228,0.161,0.212,0.207,0.25,0.237,0.292,0.284,0.29,–,–,–,–,–
NCI-H1793,–,0.249,0.201,0.218,0.198,–,–,–,–,–,–,–,–,–,–,–,0.339,0.306,0.33,0.329
NCI-H1944,0.346,0.362,0.351,0.252,0.293,–,–,–,–,–,–,–,–,–,–,0.165,0.209,0.191,0.166,0.22
NCI-H2170,0.729,0.673,0.7,0.556,0.558,–,–,–,–,–,–,–,–,–,–,0.411,0.41,0.376,0.321,0.358
NCI-H2342,0.517,0.667,0.551,0.604,0.573,–,–,–,–,–,–,–,–,–,–,0.484,0.622,0.543,0.585,0.553
SK-MES-1,0.575,0.59,0.527,0.396,0.511,–,–,–,–,–,–,–,–,–,–,0.571,0.67,0.659,0.474,0.571
SW 900,0.399,0.648,0.502,0.342,0.357,–,–,–,–,–,–,–,–,–,–,0.519,0.605,0.715,0.569,0.393
